In brackets after ≈: the same amount, converted by molar mass. Counter-ions that a name gives are not always drawn. Like-named read-outs stand apart in the source and are kept apart here.

Data set [1] in a line: Solubility in distilled water (shake-flask, HPLC). It counts as physicochemical. The settings on record: 37 °C, thermodynamic from solid.
The conditions of data set [2]: cited from earlier work.
For data set [3] the following is noted: very low aqueous solubility in GI fluids, high permeability; cited from earlier work.
Another data set deals with MDA-MB-231 cells. Nature of the data set: In vitro cytotoxicity, sulforhodamine B assay. It is filed as cell-based. The settings on record: Homo sapiens, 48 h, SRB assay, n = 3. As for the experimental part:
The cytotoxicity of MSNM@SFN against MDA-MB-231 cells was measured by sulforhodamine B assay (SRB assay). Briefly, MDA-MB-231 cells (1 × 10^4 cells per well) were seeded in a 96-well plate and grown in medium for 24 h. Then, the cells were treated with cell culture medium containing the different amounts of MSNM@SFN for 48 h at 37 °C. The cell viability was determined by SRB assay. Absorbance was measured at 540 nm using a 96-well plate reader (model 680; Bio-Rad Laboratories, Hercules, CA). The survival percentages were calculated using the formula: survival % = (A540 nm for the treated cells/A540 nm for the control cells) × 100%, where A540 nm is the absorbance value. Each assay was carried out in triplicate. Finally, dose–effect curves were constructed and IC50 values were calculated.

For the compound `CC(=O)O[C@H]1C(=O)[C@@]2(C)[C@H]([C@H](OC(=O)c3ccccc3)[C@]3(O)C[C@H](OC(=O)[C@H](O)[C@@H](NC(=O)c4ccccc4)c4ccccc4)C(C)=C1C3(C)C)[C@]1(OC(C)=O)CO[C@@H]1C[C@@H]2O` [PTX, paclitaxel], the solubility at 48 h in data set [1] (water, read-out: Solubility of PTX) came to 0.17 ± 0.02 µg/mL (≈ 0.199 µM).
`CCc1c2c(nc3ccc(O)cc13)-c1cc3c(c(=O)n1C2)COC(=O)[C@]3(O)CC` [SN38, 7-ethyl-10-hydroxycamptothecin]: the solubility at 48 h in data set [1] (water, read-out: Solubility of SN38) was below 0.01 µg/mL.
With `CNC(=O)c1cc(Oc2ccc(NC(=O)Nc3ccc(Cl)c(C(F)(F)F)c3)cc2)ccn1` [SFN, Sorafenib tosylate], the log partition coefficient (LogP) in data set [2] was 3.8. Moreover, the BCS class result in data set [3] is listed as “BCS II”. The compound also returned a half-inhibitory concentration (IC50) in the data set with MDA-MB-231 cells of 5.84 ± 0.17 µM. Besides, the solubility at 48 h in data set [1] (48 h, read-out: Solubility of SFN) was below 0.1 µg/mL.

The record behind these values is article PMC8241045, “Improving anti-tumor activity of sorafenib tosylate by lipid- and polymer-coated nanomatrix” (Drug Delivery, 2017).
